Assay results published in ChEMBL document CHEMBL1201862, “PubChem BioAssay data set” (2004).
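Results reflect a 48-hour exposure of cells in 96-well plates to compound at five concentrations. GI50 = concentration required for 50% inhibition of growth.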 Activity calls are given as the source filed them. Rule as the data show it: active = GI50 up to about 1.1 µM and inactive = higher.

Key:
Experiment in all cases: DTP human tumour cell line panel, 48 h
[1] = test system: TK-10
[2] = test system: SNB-19
[3] = test system: CCRF-CEM
[4] = test system: HT-29
[5] = test system: LOX IMVI
[6] = test system: PC-3
[7] = test system: DMS-114
[8] = test system: OVCAR-8
[9] = test system: HOP-62
[10] = test system: A498
[11] = test system: OVCAR-5
[12] = test system: SK-MEL-2
[13] = test system: HOP-92
[14] = test system: SF-295
[15] = test system: NCI-H226
[16] = test system: IGROV-1
[17] = test system: Malme-3M
[18] = test system: SN12C
[19] = test system: NCI-H23
[20] = test system: NCI/ADR-RES

SMILES	GI50 [1]	GI50 [2]	GI50 [3]	GI50 [4]	GI50 [5]	GI50 [6]	GI50 [7]	GI50 [8]	GI50 [9]	GI50 [10]	GI50 [11]	GI50 [12]	GI50 [13]	GI50 [14]	GI50 [15]	GI50 [16]	GI50 [17]	GI50 [18]	GI50 [19]	GI50 [20]
C=C1C(=O)OC2/C=C(\COC(C)=O)CCC(OC(C)=O)C3=CC(OC3=O)C12 (configuration not stated)	5.28 µM (inactive)	18 µM (inactive)	1.01 µM (active)	3.9 µM (inactive)	5.45 µM (inactive)	16.4 µM (inactive)	1.47 µM (inactive)	3.31 µM (inactive)	19.8 µM (inactive)	16 µM (inactive)	17.7 µM (inactive)	6.46 µM (inactive)	3.49 µM (inactive)	18 µM (inactive)	23.9 µM (inactive)	23.8 µM (inactive)	2.15 µM (inactive)	8.87 µM (inactive)	8.95 µM (inactive)	–
Nc1nccc2c1ncn2C1C=C(CO)C(O)C1O (configuration not stated)	> 95.5 µM (inactive)	62.7 µM (inactive)	2.76 µM (inactive)	6.37 µM (inactive)	27.5 µM (inactive)	> 100 µM (inactive)	13.9 µM (inactive)	41.8 µM (inactive)	30.3 µM (inactive)	> 100 µM (inactive)	23.4 µM (inactive)	91.6 µM (inactive)	70.1 µM (inactive)	> 100 µM (inactive)	49.1 µM (inactive)	> 95.5 µM (inactive)	43.6 µM (inactive)	74.3 µM (inactive)	68.7 µM (inactive)	7.05 µM (inactive)
CC1=C(C(=O)Nc2ccccc2)C(c2ccc(C3C(C(=O)Nc4ccccc4)=C(C)NC(C)=C3C(=O)Nc3ccccc3)cc2)C(C(=O)Nc2ccccc2)=C(C)N1	6.46 µM (inactive)	6.31 µM (inactive)	1.58 µM (inactive)	1.85 µM (inactive)	1.61 µM (inactive)	3.23 µM (inactive)	3.83 µM (inactive)	3.03 µM (inactive)	3.68 µM (inactive)	8.99 µM (inactive)	7.35 µM (inactive)	2.07 µM (inactive)	3.51 µM (inactive)	2.88 µM (inactive)	3.96 µM (inactive)	2.52 µM (inactive)	1.89 µM (inactive)	2.04 µM (inactive)	2.86 µM (inactive)	–
CCCCCCCCCCCCOC(=S)NCCCC	35.3 µM (inactive)	37.4 µM (inactive)	27.5 µM (inactive)	19 µM (inactive)	17 µM (inactive)	–	19.7 µM (inactive)	18.7 µM (inactive)	35.6 µM (inactive)	20 µM (inactive)	19.8 µM (inactive)	18.7 µM (inactive)	20 µM (inactive)	36.9 µM (inactive)	20.1 µM (inactive)	25.6 µM (inactive)	26.6 µM (inactive)	19.9 µM (inactive)	23 µM (inactive)	–
CCOC(=O)[C@@]1(C)C=C2O[C@@H]3OC4(CCCCC4)O[C@@H]3C2=C2C(O)=CC=C(O)[C@]21C(=O)OC	> 68.1 µM (inactive)	> 68.1 µM (inactive)	> 68.1 µM (inactive)	> 68.1 µM (inactive)	> 68.1 µM (inactive)	–	> 68.1 µM (inactive)	> 68.1 µM (inactive)	> 68.1 µM (inactive)	> 68.1 µM (inactive)	> 68.1 µM (inactive)	> 68.1 µM (inactive)	13.4 µM (inactive)	> 68.1 µM (inactive)	> 68.1 µM (inactive)	> 68.1 µM (inactive)	> 68.1 µM (inactive)	> 68.1 µM (inactive)	> 68.1 µM (inactive)	–
CC1=C(/C=C/C(C)=C/C2CC(N(C)C)=CC(=O)O2)C(C)(C)CCC1 (configuration not stated)	14.1 µM (inactive)	15.2 µM (inactive)	3.46 µM (inactive)	13.2 µM (inactive)	15.2 µM (inactive)	–	10.8 µM (inactive)	15.5 µM (inactive)	16.9 µM (inactive)	14.9 µM (inactive)	11.6 µM (inactive)	13.2 µM (inactive)	16.4 µM (inactive)	13 µM (inactive)	11.9 µM (inactive)	14.8 µM (inactive)	14.4 µM (inactive)	15.5 µM (inactive)	13.5 µM (inactive)	–
